The text below walks through data of patent US9682995B2, “Amino-substituted isothiazoles” (BAYER PHARMA AKTIENGESELLSCHAFT, priority 2013, dated 2017).

Structures are written as SMILES. Bounds are passed on as bounds.

For one assay, the system named is HeLa. Put plainly: Proliferation assay (crystal violet), HeLa. Format: cell-based. The conditions noted are these: Homo sapiens, 96 h, 4 days, read-out: Inhibition of proliferation IC50 HeLa. On the procedure: Cultivated tumor cells (cells were ordered from ATCC, except HeLa-MaTu and HeLa-MaTu-ADR, which were ordered from EPO-GmbH, Berlin) were plated at a density of 1000 to 5000 cells/well, depending on the growth rate of the respective cell line, in a 96-well multititer plate in 200 μL of their respective growth medium supplemented 10% fetal calf serum. After 24 hours, the cells of one plate (zero-point plate) were stained with crystal violet (see below), while the medium of the other plates was replaced by fresh culture medium (200 μl), to which the test substances were added in various concentrations (0 μM, as well as in the range of 0.001-10 μM; the final concentration of the solvent dimethyl sulfoxide was 0.5%). The cells were incubated for 4 days in the presence of test substances. Cell proliferation was determined by staining the cells with crystal violet: the cells were fixed by adding 20 μl/measuring point of an 11% glutaric aldehyde solution for 15 minutes at room temperature. After three washing cycles of the fixed cells with water, the plates were dried at room temperature. The cells were stained by adding 100 μl/measuring point of a 0.1% crystal violet solution (pH 3.0). After three washing cycles of the stained cells with water, the plates were dried at room temperature. The dye was dissolved by adding 100 μl/measuring point of a 10% acetic acid solution. Absorption was determined by photometry at a wavelength of 595 nm. The change of cell number, in percent, was calculated by normalization of the measured values to the absorption values of the zero-point plate (=0%) and the absorption of the untreated (0 μm) cells (=100%). The IC50 values were determined by means of a 4 parameter fit.

The next assay addresses human kinase Mps-1 (Homo sapiens (Human), UniProt P33981). The assay can be described thus: Mps-1 kinase assay (TR-FRET). Format: biochemical. The settings on record: 10 μM ATP; read-out: Mps1 avg (IC50 [mol/l]). On the procedure:
The human kinase Mps-1 phosphorylates a biotinylated substrate peptide. Detection of the phosphorylated product is achieved by time-resolved fluorescence resonance energy transfer (TR-FRET) from Europium-labelled anti-phospho-Serine/Threonine antibody as donor to streptavidin labelled with cross-linked allophycocyanin (SA-XLent) as acceptor. Compounds are tested for their inhibition of the kinase activity.
N-terminally GST-tagged human full length recombinant Mps-1 kinase (purchased from Invitrogen, Karslruhe, Germany, cat. no PV4071) was used. As substrate for the kinase reaction a biotinylated peptide of the amino-acid sequence biotin-Ahx-PWDPDDADITEILG (C-terminus in amide form, purchased from Biosyntan GmbH, Berlin) was used.
For the assay 50 nl of a 100-fold concentrated solution of the test compound in DMSO was pipetted into a black low volume 384 well microtiter plate (Greiner Bio-One, Frickenhausen, Germany), 2 μl of a solution of Mps-1 in assay buffer [0.1 mM sodium-ortho-vanadate, 10 mM MgCl2, 2 mM DTT, 25 mM Hepes pH 7.7, 0.05% BSA (w/v), 0.001% Pluronic F-127] were added and the mixture was incubated for 15 min at 22° C. to allow pre-binding of the test compounds to Mps-1 before the start of the kinase reaction. Then the kinase reaction was started by the addition of 3 μl of a solution of 16.7 μM adenosine-tri-phosphate (ATP, 16.7 μM=>final conc. in the 5 μl assay volume is 10 μM) and peptide substrate (1.67 μM=>final conc. in the 5 μl assay volume is 1 μM) in assay buffer and the resulting mixture was incubated for a reaction time of 60 min at 22° C. The concentration of Mps-1 in the assay was adjusted to the activity of the enzyme lot and was chosen appropriate to have the assay in the linear range, typical enzyme concentrations were in the range of about 0.5 nM (final conc. in the 5 μl assay volume). The reaction was stopped by the addition of 5 μl of a solution of TR-FRET detection reagents (100 mM Hepes pH 7.4, 0.1% BSA, 40 mM EDTA, 140 nM Streptavidin-XLent [#61GSTXLB, Fa. Cis Biointernational, Marcoule, France], 1.5 nM anti-phospho(Ser/Thr)-Europium-antibody [#AD0180, PerkinElmer LAS, Rodgau-Jugesheim, Germany]. Instead of the 1.5 nM anti-phospho(Ser/Thr)-Europium-antibody a mixture of 2 nM unlabeled anti-phospho ser/thr-pro antibody MPM-2 [Millipore cat. #05-368] and 1 nM LANCE EU-W1024 labeled anti-mouse IgG antibody [Perkin-Elmer, product no. AD0077] can be used).
The resulting mixture was incubated 1 h at 22° C. to allow the binding of the phosphorylated peptide to the anti-phospho(Ser/Thr)-Europium-antibody. Subsequently the amount of phosphorylated substrate was evaluated by measurement of the resonance energy transfer from the Europium-labelled anti-phospho(Ser/Thr) antibody to the Streptavidin-XLent. Therefore, the fluorescence emissions at 620 nm and 665 nm after excitation at 350 nm was measured in a Viewlux TR-FRET reader (PerkinElmer LAS, Rodgau-Jugesheim, Germany). The “blank-corrected normalized ratio” (a Viewlux specific readout, similar to the traditional ratio of the emissions at 665 nm and at 622 nm, in which blank and Eu-donor crosstalk are subtracted from the 665 nm signal before the ratio is calculated) was taken as the measure for the amount of phosphorylated substrate. The data were normalised (enzyme reaction without inhibitor=0% inhibition, all other assay components but no enzyme=100% inhibition).
(In general: In TR-FRET formats the signal depends on donor and acceptor labels being close together.)

human kinase Mps-1, sequence (P33981 whole entry): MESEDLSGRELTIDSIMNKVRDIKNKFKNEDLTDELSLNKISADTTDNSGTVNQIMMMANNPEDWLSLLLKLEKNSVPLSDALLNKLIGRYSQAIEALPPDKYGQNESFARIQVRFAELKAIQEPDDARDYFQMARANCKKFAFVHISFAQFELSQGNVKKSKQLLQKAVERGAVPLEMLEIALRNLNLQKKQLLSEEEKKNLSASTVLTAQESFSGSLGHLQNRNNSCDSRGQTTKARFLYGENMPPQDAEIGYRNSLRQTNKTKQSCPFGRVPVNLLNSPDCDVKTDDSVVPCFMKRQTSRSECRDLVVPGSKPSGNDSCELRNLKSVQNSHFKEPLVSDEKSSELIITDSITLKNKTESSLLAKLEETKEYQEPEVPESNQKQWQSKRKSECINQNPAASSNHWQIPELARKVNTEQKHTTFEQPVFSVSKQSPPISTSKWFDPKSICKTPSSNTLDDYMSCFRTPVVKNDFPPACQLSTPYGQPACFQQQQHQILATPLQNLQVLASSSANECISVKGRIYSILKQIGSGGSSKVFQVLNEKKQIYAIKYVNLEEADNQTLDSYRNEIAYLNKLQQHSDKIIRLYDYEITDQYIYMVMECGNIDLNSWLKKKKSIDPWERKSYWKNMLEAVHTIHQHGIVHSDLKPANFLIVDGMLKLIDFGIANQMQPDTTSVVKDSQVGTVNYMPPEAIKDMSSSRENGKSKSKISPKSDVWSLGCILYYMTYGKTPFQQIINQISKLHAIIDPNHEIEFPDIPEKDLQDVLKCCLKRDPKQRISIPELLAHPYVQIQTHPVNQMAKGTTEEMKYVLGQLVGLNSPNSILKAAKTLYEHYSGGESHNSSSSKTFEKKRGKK

Take `Cc1nsc(Nc2cnc3cc(F)ccc3n2)c1C(=O)Nc1ccc(F)c(F)c1` [Example 46, N-(3,4-Difluorophenyl)-5-[(6-fluoroquinoxalin-2-yl)amino]-3-methyl-1,2-thiazole-4-carboxamide]: the figures for the IC50 in the assay on HeLa and on human kinase Mps-1 were 0.13 µM and over 20 µM, respectively.
`COc1ccc(NC(=O)c2c(C)nsc2Nc2nc3c(C(F)(F)F)cccc3s2)cc1F` [Example 47, N-(3-Fluoro-4-methoxyphenyl)-3-methyl-5-{[4-(trifluoromethyl)-1,3-benzothiazol-2-yl]amino}-1,2-thiazole-4-carboxamide]: the IC50 in the assay on HeLa was 0.37 µM; at human kinase Mps-1, over 20 µM.
Regarding `COc1ccc(NC(=O)c2c(C)nsc2Nc2nc3c(C(F)(F)F)cccc3s2)cn1` [Example 48, N-(6-Methoxypyridin-3-yl)-3-methyl-5-{[4-(trifluoromethyl)-1,3-benzothiazol-2-yl]-amino}-1,2-thiazole-4-carboxamide], the results for the IC50 in the assay with HeLa and on human kinase Mps-1 were 0.58 µM and over 20 µM, respectively.
The like results for `Cc1nsc(Nc2ncc(C(=O)N(C)C)s2)c1C(=O)Nc1ccc(F)c(F)c1` [Example 49, N-(3,4-Difluorophenyl)-5-{[5-(dimethylcarbamoyl)-1,3-thiazol-2-yl]amino}-3-methyl-1,2-thiazole-4-carboxamide] were, in that order, 4.4 µM and over 20 µM.
As for `Cc1nsc(Nc2cnc3ccccc3n2)c1C(=O)Nc1ccc(F)c(F)c1` [Example 50, N-(3,4-Difluorophenyl)-3-methyl-5-(quinoxalin-2-ylamino)-1,2-thiazole-4-carboxamide], the values for the IC50 in the assay on HeLa and on human kinase Mps-1 were 0.45 µM and over 20 µM, respectively.
The corresponding values for `Cc1nsc(Nc2nc3c(C(F)(F)F)cccc3s2)c1C(=O)Nc1ccc(F)c(F)c1` [Example 51, N-(3,4-Difluorophenyl)-3-methyl-5-{[4-(trifluoromethyl)-1,3-benzothiazol-2-yl]-amino}-1,2-thiazole-4-carboxamide] are 0.57 µM and over 20 µM.
The like results for `Cc1nsc(Nc2ccc(C#N)cn2)c1C(=O)Nc1ccc(Cl)c(F)c1` [Example 52, N-(4-Chloro-3-fluorophenyl)-5-[(5-cyanopyridin-2-yl)amino]-3-methyl-1,2-thiazole-4-carboxamide] were, in that order, 0.24 µM and over 20 µM.
The like results for `Cc1nsc(Nc2nc3c(C(F)(F)F)cccc3s2)c1C(=O)Nc1ccc(Cl)c(F)c1` [Example 53, N-(4-Chloro-3-fluorophenyl)-3-methyl-5-{[4-(trifluoromethyl)-1,3-benzothiazol-2-yl]amino}-1,2-thiazole-4-carboxamide] were, in that order, 1 µM and over 20 µM.
`Cc1nsc(Nc2cc(C#N)ccn2)c1C(=O)Nc1ccc(Cl)c(F)c1` [Example 54, N-(4-Chloro-3-fluorophenyl)-5-[(4-cyanopyridin-2-yl)amino]-3-methyl-1,2-thiazole-4-carboxamide]: the results for the IC50 in the assay with HeLa and at human kinase Mps-1 were 0.8 µM and over 20 µM, respectively.
With `CCOC(=O)c1cnn2ccc(Nc3snc(C)c3C(=O)Nc3ccc(F)c(F)c3)nc12` [Example 55, Ethyl 5-({4-[(3,4-difluorophenyl)carbamoyl]-3-methyl-1,2-thiazol-5-yl}amino)-pyrazolo[1,5-a]pyrimidine-3-carboxylate], the IC50 was 0.92 µM with HeLa and over 20 µM on human kinase Mps-1.
Turning to `Cc1nsc(Nc2cnccn2)c1C(=O)Nc1ccc(Cl)c(F)c1` [Example 56, N-(4-Chloro-3-fluorophenyl)-3-methyl-5-(pyrazin-2-ylamino)-1,2-thiazole-4-carboxamide], the results for the IC50 in the assay with HeLa and at human kinase Mps-1 were 0.79 µM and over 20 µM, respectively.
For `Cc1nsc(Nc2ccn3nccc3n2)c1C(=O)Nc1ccc(F)c(F)c1` [Example 57, N-(3,4-Difluorophenyl)-3-methyl-5-(pyrazolo[1,5-a]pyrimidin-5-ylamino)-1,2-thiazole-4-carboxamide], the values for the IC50 with HeLa and at human kinase Mps-1 were 2.9 µM and 18 µM, respectively.
The corresponding values for `CCOC(=O)c1cnc(Nc2snc(C)c2C(=O)Nc2ccc(F)c(F)c2)o1` [Example 96, Ethyl 2-({4-[(3,4-difluorophenyl)carbamoyl]-3-methyl-1,2-thiazol-5-yl}amino)-1,3-oxazole-5-carboxylate] are 10 µM and over 20 µM.
The corresponding values for `COC(=O)c1cnc(Nc2snc(C)c2C(=O)Nc2ccc(F)c(F)c2)o1` [Example 97, Methyl 2-({4-[(3,4-difluoro-phenyl)carbamoyl]-3-methyl-1,2-thiazol-5-yl}amino)-1,3-oxazole-5-carboxylate] are 10 µM and over 20 µM.
The corresponding values for `CCOC(=O)c1coc(Nc2snc(C)c2C(=O)Nc2ccc(F)c(F)c2)n1` [Example 98, Ethyl 2-({4-[(3,4-difluoro-phenyl)carbamoyl]-3-methyl-1,2-thiazol-5-yl}amino)-1,3-oxazole-4-carboxylate] are 10 µM and 18 µM.
Consider `CCNC(=O)c1csc(Nc2snc(C)c2C(=O)Nc2ccc(F)c(F)c2)n1` [Example 99, N-(3,4-Difluorophenyl)-5-{[4-(ethylcarbamoyl)-1,3-thiazol-2-yl]amino}-3-methyl-1,2-thiazole-4-carboxamide], for which the results for the IC50 in the assay on HeLa and on human kinase Mps-1 were 3.3 µM and over 20 µM, respectively.
Regarding `CCOC(=O)c1coc(Nc2snc(C)c2C(=O)Nc2ccc(OC)nc2)n1` [Example 100, Ethyl 2-({4-[(6-methoxypyridin-3-yl)carbamoyl]-3 methyl-1,2-thiazol-5-yl}amino)-1,3-oxazole-4-carboxylate], the IC50 in the assay on HeLa was 10 µM; at human kinase Mps-1, over 20 µM.
The like results for `COC(=O)c1cncc(Nc2snc(C)c2C(=O)Nc2ccc(OC)nc2)n1` [Example 101, Methyl 6-({4-[(6-methoxypyridin-3-yl)carbamoyl]-3-methyl-1,2-thiazol-5-yl}amino)pyrazine-2-carboxylate] were, in that order, 7.2 µM and over 20 µM.
`Cc1nsc(Nc2nc3c(C(F)(F)F)cccc3s2)c1C(=O)Nc1ccc(Cl)c(Cl)c1` [Example 102, N-(3,4-Dichlorophenyl)-3-methyl-5-{[4-(trifluoromethyl)-1,3-benzothiazol-2-yl]amino}-1,2-thiazole-4-carboxamide]: the IC50 in the assay on HeLa is 7.3 µM; on human kinase Mps-1, over 20 µM.
In the case of `Cc1nsc(Nc2nc3c(C(F)(F)F)ccnc3s2)c1C(=O)Nc1ccc(Cl)c(F)c1` [Example 103, N-(4-Chloro-3-fluorophenyl)-3-methyl-5-{[7-(trifluoromethyl)[1,3]thiazolo[5,4-b]pyridin-2-yl]amino}-1,2-thiazole-4-carboxamide], the figures for the IC50 in the assay on HeLa and on human kinase Mps-1 were 2.9 µM and over 20 µM, respectively.
